The values below come from US9624182B2, “Compounds as lysophosphatidic acid receptor antagonists” (Amira Pharmaceuticals, Inc., priority 2009, dated 2017).

The assay concerns the target T1, human LPA1 (Homo sapiens, UniProt Q92633).
T1 construct: the full-length cDNA for human LPA1 was obtained by PCR of the reverse transcription reaction; expressed in transfected cells
Put plainly: LPA1 calcium flux assay. The assay is classed as cell-based. To be noted: CHO cells expressing human LPA1, stimulated with 10 nM LPA; read-out: HLPA1 Ca Flux IC50. Put shortly:
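CHO cells stably expressing cloned human LPA1, serum-starved overnight, loaded with Calcium 4 dye 1 h at 37 °C in HBSS/20 mM Hepes with 0.3% fatty-acid-free HSA. Compounds preincubated 30 min at room temperature, then cells stimulated with 10 nM LPA; intracellular Ca2+ read by fluorescence. IC50 from titration curves.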
A general note: Calcium assays in cells follow changes in intracellular calcium, usually with a dye or a luminescent sensor.

T1 sequence (Q92633 whole entry): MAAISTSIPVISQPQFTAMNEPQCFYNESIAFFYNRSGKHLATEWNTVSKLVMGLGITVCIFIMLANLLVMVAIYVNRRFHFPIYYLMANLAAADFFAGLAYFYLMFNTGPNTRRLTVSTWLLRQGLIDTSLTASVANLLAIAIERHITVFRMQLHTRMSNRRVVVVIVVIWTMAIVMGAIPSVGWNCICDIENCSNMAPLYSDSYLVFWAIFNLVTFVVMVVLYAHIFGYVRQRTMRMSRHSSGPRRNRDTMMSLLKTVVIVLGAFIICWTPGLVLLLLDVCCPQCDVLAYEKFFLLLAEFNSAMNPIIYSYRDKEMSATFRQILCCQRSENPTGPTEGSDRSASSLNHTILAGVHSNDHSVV

In the case of `Cc1noc(-c2ccc(-c3ccc(C4(C(=O)O)CC4)cc3)cc2)c1CSCC(C)C` [Compound 1-96, 1-[4′-(4-Isobutylsulfanylmethyl-3-methyl-isoxazol-5-yl)-biphenyl-4-yl]-cyclopropanecarboxylic acid], the IC50 (in general, the concentration needed to halve the response being measured) is under 0.3 µM. For `Cc1noc(-c2ccc(-c3ccc(C4(C(=O)O)CC4)cc3)cc2)c1C(C)C(=O)NC(C)c1ccccc1` (centres unmarked) [Compound 1-97, 1-(4′-{3-Methyl-4-[1-(1-phenyl-ethylcarbamoyl)-ethyl]-isoxazol-5-yl}-biphenyl-4-yl)-cyclopropanecarboxylic acid], the concentration for half-maximal inhibition (IC50) was 1 to 50 µM.

Consider `Cc1noc(-c2ccc(-c3ccc(C4(C(=O)O)CC4)cc3)cc2)c1CNC(=O)C(C)(C)c1ccccc1` [Compound 1-98, 1-(4′-{3-Methyl-4-[(2-methyl-2-phenyl-propionylamino)-methyl]-isoxazol-5-yl}-biphenyl-4-yl)-cyclopropanecarboxylic acid], for which the concentration for half-maximal inhibition (IC50) is under 0.3 µM. As for `Cc1noc(-c2ccc(-c3ccc(C4(C(=O)O)CC4)cc3)cc2)c1CC(=O)N[C@H]1CCc2ccccc21` [Compound 1-99, 1-{4′-[4-((S)-Indan-1-ylcarbamoylmethyl)-3-methyl-isoxazol-5-yl]-biphenyl-4-yl}-cyclopropanecarboxylic acid], the IC50 is under 0.3 µM.

With `Cc1noc(-c2ccc(-c3ccc(C4(C(=O)O)CC4)cc3)cc2)c1CNC(=O)C(C)Oc1ccccc1` (centres unmarked) [Compound 1-100, 1-(4′-{3-Methyl-4-[(2-phenoxy-propionylamino)-methyl]-isoxazol-5-yl}-biphenyl-4-yl)-cyclopropanecarboxylic acid], the IC50 lay within 0.3 to 1 µM.

On to `Cc1noc(-c2ccc(-c3ccc(C4(CC(=O)O)CC4)cc3)cc2)c1/C=C\CCc1ccccc1` [Compound 1-101, (1-{4′-[3-Methyl-4-((Z)-4-phenyl-but-1-enyl)-isoxazol-5-yl]-biphenyl-4-yl}-cyclopropyl)-acetic acid], for which the IC50 is under 0.3 µM. Take `Cc1noc(-c2ccc(-c3ccc(C4(CC(=O)O)CC4)cc3)cc2)c1/C=C/CCc1ccccc1` [Compound 1-102, (1-{4′-[3-Methyl-4-((E)-4-phenyl-but-1-enyl)-isoxazol-5-yl]-biphenyl-4-yl}-cyclopropyl)-acetic acid]: the half-maximal inhibitory concentration (IC50) was in the range of 0.3 to 1 µM. Take `CCN(Cc1c(C)noc1-c1ccc(-c2ccc(C3(C(=O)O)CC3)cc2)cc1)C[C@H](C)c1ccccc1` [Compound 1-104, 1-[4′-(4-{[Ethyl-((R)-2-phenyl-propyl)-amino]-methyl}-3-methyl-isoxazol-5-yl)-biphenyl-4-yl]-cyclopropanecarboxylic acid]: the half-maximal inhibitory concentration (IC50) was under 0.3 µM.

Take `Cc1noc(-c2ccc(-c3ccc(C4(C(=O)O)CC4)cc3)cc2)c1CCC(=O)N(C)[C@H](C)c1ccccc1` [Compound 1-105, 1-[4′-(3-Methyl-4-{2-[(R)-methyl-(1-phenyl-ethyl)-carbamoyl]-ethyl}-isoxazol-5-yl)-biphenyl-4-yl]-cyclopropanecarboxylic acid]: the IC50 was under 0.3 µM.

As for `Cc1noc(-c2ccc(-c3ccc(C4(C(=O)O)CC4)cc3)cc2)c1CCC(=O)NC(C)(C)c1ccccc1` [Compound 1-106, 1-(4′-{3-Methyl-4-[2-(1-methyl-1-phenyl-ethylcarbamoyl)-ethyl]-isoxazol-5-yl}-biphenyl-4-yl)-cyclopropanecarboxylic acid], the half-inhibitory concentration (IC50) was 1 to 50 µM.

On to `Cc1noc(-c2ccc(-c3ccc(C4(C(=O)O)CC4)cc3)cc2)c1CCC(=O)N1Cc2ccccc2C1` [Compound 1-107, 1-(4′-{4-[3-(1,3-Dihydro-isoindol-2-yl)-3-oxo-propyl]-3-methyl-isoxazol-5-yl}-biphenyl-4-yl)-cyclopropanecarboxylic acid], for which the half-maximal inhibitory concentration (IC50) is over 50 µM. Consider `Cc1noc(-c2ccc(-c3ccc(CC(=O)O)cc3)cc2)c1CSCCc1ccccc1` [Compound 1-108, [4′-(3-Methyl-4-phenethylsulfanylmethyl-isoxazol-5-yl)-biphenyl-4-yl]-acetic acid], for which the 50% inhibitory concentration (IC50) is under 0.3 µM. For the compound `Cc1noc(-c2ccc(-c3ccc(CC(=O)O)cc3)cc2)c1CS(=O)(=O)CCc1ccccc1` [Compound 1-109, {4′-[3-Methyl-4-(2-phenyl-ethanesulfonylmethyl)-isoxazol-5-yl]-biphenyl-4-yl}-acetic acid], the half-inhibitory concentration (IC50) lay in the range of 1 to 50 µM.

Consider `Cc1noc(-c2ccc(-c3ccc(C4(C(=O)O)CC4)cc3)cc2)c1C=CCC(C)c1ccccc1` (centres unmarked) [Compound 1-110, 1-{4′-[3-Methyl-4-(4-phenyl-pent-1-enyl)-isoxazol-5-yl]-biphenyl-4-yl}-cyclopropanecarboxylic acid], for which the half-inhibitory concentration (IC50) is under 0.3 µM. As for `Cc1noc(-c2ccc(-c3ccc(C4(C(=O)O)CC4)cc3)cc2)c1C=CC(C)Cc1ccc(C(C)C)cc1` (centres unmarked) [Compound 1-111, 1-(4′-{4-[4-(4-Isopropyl-phenyl)-3-methyl-but-1-enyl]-3-methyl-isoxazol-5-yl}-biphenyl-4-yl)-cyclopropanecarboxylic acid], the 50% inhibitory concentration (IC50) is 1 to 50 µM.

On to `Cc1noc(-c2ccc(-c3ccc(C4(C(=O)O)CC4)cc3)cc2)c1/C=C\CC(C)c1ccccc1` (centres unmarked) [Compound 1-112, 1-{4′-[3-Methyl-4-((Z)-4-phenyl-pent-1-enyl)-isoxazol-5-yl]-biphenyl-4-yl}-cyclopropanecarboxylic acid], for which the concentration for half-maximal inhibition (IC50) was under 0.3 µM. As for `Cc1noc(-c2ccc(-c3ccc(C4(C(=O)O)CC4)cc3)cc2)c1/C=C/CC(C)c1ccccc1` (centres unmarked) [Compound 1-113, 1-{4′-[3-Methyl-4-((E)-4-phenyl-pent-1-enyl)-isoxazol-5-yl]-biphenyl-4-yl}-cyclopropanecarboxylic acid], the figure is 1 to 50 µM; as for `Cc1noc(-c2ccc(-c3ccc(C4(C(=O)O)CC4)cc3)cc2)c1C(O)C/C=C/c1ccccc1` (centres unmarked) [Compound 1-115, 1-{4′-[4-((E)-1-Hydroxy-4-phenyl-but-3-enyl)-3-methyl-isoxazol-5-yl]-biphenyl-4-yl}-cyclopropanecarboxylic acid], under 0.3 µM; as for `Cc1noc(-c2ccc(-c3ccc(C4(C(=O)O)CC4)cc3)cc2)c1CCC(=O)N(C)C(C)(C)c1ccccc1` [Compound 1-118, 1-[4′-(3-Methyl-4-{2-[methyl-(1-methyl-1-phenyl-ethyl)-carbamoyl]-ethyl}-isoxazol-5-yl)-biphenyl-4-yl]-cyclopropanecarboxylic acid], 1 to 50 µM. For `Cc1noc(-c2ccc(-c3ccc(C4(C(=O)O)CC4)cc3)cc2)c1CCC(=O)N(C)CC1CC1` [Compound 1-119, 1-(4′-{4-[2-(Cyclopropylmethyl-methyl-carbamoyl)-ethyl]-3-methyl-isoxazol-5-yl}-biphenyl-4-yl)-cyclopropanecarboxylic acid], the half-inhibitory concentration (IC50) was in the range of 0.3 to 1 µM. As to `Cc1noc(-c2ccc(-c3ccc(C4(C(=O)O)CC4)cc3)cc2)c1CSCC(=O)c1ccccc1` [Compound 1-120, 1-{4′-[3-Methyl-4-(2-oxo-2-phenyl-ethylsulfanylmethyl)-isoxazol-5-yl]-biphenyl-4-yl}-cyclopropanecarboxylic acid], the IC50 is 1 to 50 µM. As for `CCC(C(=O)O)c1ccc(-c2ccc(-c3onc(C)c3CSCCc3ccccc3)cc2)cc1` (centres unmarked) [Compound 1-122, 2-[4′-(3-Methyl-4-phenethylsulfanylmethyl-isoxazol-5-yl)-biphenyl-4-yl]-butyric acid], the figure is under 0.3 µM; as for `Cc1noc(-c2ccc(-c3ccc(C(C)C(=O)O)cc3)cc2)c1CSCCc1ccccc1` (centres unmarked) [Compound 1-123, 2-[4′-(3-Methyl-4-phenethylsulfanylmethyl-isoxazol-5-yl)-biphenyl-4-yl]-propionic acid], under 0.3 µM.
